target: T1, human m4 receptors (Homo sapiens, UniProt P08173); assay: Cyclic AMP accumulation in pertussis toxin-treated CHO m4 cells; format: cell-based; conditions: stimulation of cyclic AMP production in CHO-m4 cells, forskolin present
T1 construct: expressed in transfected cells; host or cells: CHO K1
Experimental: Cyclic AMP Accumulation in Pertussis Toxin-Treated CHO m4 Cells.
CHO K1 cells transfected with human m4 receptors were grown to near confluency in T-150 flasks using Dulbecco's Modified Eagle Medium (DMEM) containing 10% fetal bovine serum. Cells were detached with 0.05% trypsin, […], and were suspended in medium containing 100 ng/ml pertussis toxin. Cells were plated at 30,000 cells per well into 96 well plates. Eighteen to twenty hours later the medium was removed and the cells were washed with serum-free medium. Attached cells were incubated at 37° C. for one hour after addition of […] of serum free DMEM containing 1 mM 3-isobutyl-1-methylxanthine and 1 mM forskolin plus or minus drugs being tested. Incubations were terminated with […] per well of serum free DMEM containing 0.3% triton-X-100. After stopping incubations the plates were allowed to sit for 20 minutes to extract cAMP and samples were then diluted 2.5-fold and were assayed using the scintillation proximity assay of Amersham (Arlington Heights, Ill).
Representative results from the M4 assay are as follows:
Stimulation of cyclic AMP production in CHO-m4cells.

T1 sequence (P08173 whole entry): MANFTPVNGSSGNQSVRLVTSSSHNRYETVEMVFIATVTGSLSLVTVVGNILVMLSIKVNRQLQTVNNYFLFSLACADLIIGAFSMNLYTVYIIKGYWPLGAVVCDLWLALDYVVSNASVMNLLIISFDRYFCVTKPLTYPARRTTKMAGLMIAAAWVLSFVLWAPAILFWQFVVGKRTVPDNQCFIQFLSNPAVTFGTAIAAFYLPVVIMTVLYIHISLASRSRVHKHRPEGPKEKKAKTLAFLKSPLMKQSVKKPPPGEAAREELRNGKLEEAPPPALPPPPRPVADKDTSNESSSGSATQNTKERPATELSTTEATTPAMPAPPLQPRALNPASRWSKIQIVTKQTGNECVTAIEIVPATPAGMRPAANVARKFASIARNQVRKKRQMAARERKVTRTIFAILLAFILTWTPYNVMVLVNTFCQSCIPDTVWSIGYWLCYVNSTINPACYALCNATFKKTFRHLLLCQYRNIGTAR

Row | SMILES | % Maximum Stimulation Compared to Oxotremorine-M [%]
1 | CN(C)C=Nc1ccc2c(c1)C(NS(=O)(=O)c1ccc(Cl)c(Cl)c1)C(O)C2 (stereo not drawn) [Compound 72] | 4
2 | CN(C)C=Nc1ccc2c(c1)C(NC(=O)c1cc(F)cc(C(F)(F)F)c1)C(O)C2 (stereo not drawn) [Compound 64] | 52
3 | O=C(NC1c2cc(N=CN3CCCCC3)ccc2CC1O)c1cc(F)cc(F)c1 (stereo not drawn) [Compound 98] | 73
4 | CN(C)C=Nc1ccc2c(c1)C(NC(=O)c1cccnc1Cl)C(O)C2 (stereo not drawn) [Compound 73] | 11
5 | O=C(NC1c2cc(N=CN3CCCC3)ccc2CC1O)c1c(Cl)cc(Cl)cc1Cl (stereo not drawn) [Compound 47] | <20
6 | CN(C)C=Nc1ccc2c(c1)C(NC(=O)C(F)(F)F)C(O)C2 (stereo not drawn) [Compound 66] | 0
7 | CC(=Nc1ccc2c(c1)C(NC(=O)c1ccc(Cl)c(Cl)c1)C(O)C2)N(C)C (stereo not drawn) [Compound 76] | 130
8 | CCCCc1ccc(C(=O)NC2c3cc(N=CN4CCCC4)ccc3CC2O)cc1 (stereo not drawn) [Compound 45] | <20
9 | CN(C)C=Nc1ccc2c(c1)C(NC(=O)c1ccc(Cl)nc1)C(O)C2 (stereo not drawn) [Compound 74] | 8
10 | CN(C)C=Nc1ccc2c(c1)C(NC(=O)c1ccccc1)C(O)C2 (stereo not drawn) [Compound 57] | 5
11 | O=C(NC1c2cc(N=CN3CCCCC3)ccc2CC1O)c1cc(Cl)cc(Cl)c1 (stereo not drawn) [Compound 97] | 36
12 | CN(C)C=Nc1ccc2c(c1)C(NC(=O)c1ccc3ccccc3c1)C(O)C2 (stereo not drawn) [Compound 63] | 13
13 | CN(C)C=Nc1ccc2c(c1)C(NC(=O)C1CCCC1)C(O)C2 (stereo not drawn) [Compound 62] | 27
14 | CN(C)C=Nc1ccc2c(c1)C(NC(=O)c1cc(F)c(F)c(F)c1)C(O)C2 (stereo not drawn) [Compound 65] | 30
15 | O=C(NC1c2cc(N=CN3CCCC3)ccc2CC1O)c1c(Cl)cccc1Cl (stereo not drawn) [Compound 46] | 154
16 | O=C(NC1c2cc(N=CN3CCCCC3)ccc2CC1O)c1cccc(Cl)c1Cl (stereo not drawn) [Compound 88] | 52
17 | CCCCc1ccc(C(=O)NC2c3cc(N=CN(C)C)ccc3CC2O)cc1 (stereo not drawn) [Compound 70] | 18
18 | CN(C)C=Nc1ccc2c(c1)C(NC(=O)c1sccc1Cl)C(O)C2 (stereo not drawn) [Compound 68] | 0
19 | CN(C)C=Nc1ccc2c(c1)C(NC(=O)c1ccc(C(F)(F)F)cc1)C(O)C2 (stereo not drawn) [Compound 75] | 6
20 | O=C(NC1c2cc(N=CN3CCCCC3)ccc2CC1O)c1ccc(Cl)c(Cl)c1 (stereo not drawn) [Compound 77] | 214
21 | CCc1ccc(C(=O)NC2c3cc(N=CN(C)C)ccc3CC2O)cc1 (stereo not drawn) [Compound 67] | 7
22 | CCCCOc1ccc(C(=O)NC2c3cc(N=CN(C)C)ccc3CC2O)cc1 (stereo not drawn) [Compound 59] | 22
23 | CN(C)C=Nc1ccc2c(c1)C(NC(=O)c1cc(C(F)(F)F)cc(C(F)(F)F)c1)C(O)C2 (stereo not drawn) [Compound 60] | 100
24 | CN(C)C=Nc1ccc2c(c1)C(NC(=O)c1cccc(C#N)c1)C(O)C2 (stereo not drawn) [Compound 61] | 39
25 | CN(C)C=Nc1ccc2c(c1)C(NC(=O)c1cc(Cl)cc(Cl)c1)C(O)C2 (stereo not drawn) [Compound 58] | 74
26 | CN(C)C=Nc1ccc2c(c1)C(NC(=O)c1cc3ccccc3s1)C(O)C2 (stereo not drawn) [Compound 69] | 14
27 | CN(C)C=Nc1ccc2c(c1)C(NC(=O)c1cccc3ccccc13)C(O)C2 (stereo not drawn) [Compound 71] | 95

target: muscarinic receptor; assay: not given; conditions: first of three sites (high affinity); read-out: affinity of site labeled by 3H-Oxo; cited from earlier work

Row | SMILES | Kd [nM]
28 | C[N+](C)(C)CC#CCN1CCCC1=O [^3H-Oxo, ^3H-Oxotremorine-M] | 1.8

same assay, conditions: second of three sites (medium affinity); read-out: affinity of site labeled by 3H-Oxo; cited from earlier work

Row | SMILES | Kd [nM]
29 | C[N+](C)(C)CC#CCN1CCCC1=O [^3H-Oxo, ^3H-Oxotremorine-M] | 20

same assay, conditions: third of three sites (low affinity); read-out: affinity of site labeled by 3H-Oxo; cited from earlier work

Row | SMILES | Kd [nM]
30 | C[N+](C)(C)CC#CCN1CCCC1=O [^3H-Oxo, ^3H-Oxotremorine-M] | 3000
